# Experimental data from ChEMBL document CHEMBL1158422, “A library of novel allosteric inhibitors against fructose 1,6-bisphosphatase” (Bioorg Med Chem, 2009).
# pIC50: −log10 of the molar value. Several values for one entry are separate records, joined by “and”; a condition that tells them apart may be missing. Equal values may be shown once. Activity calls are given as the source filed them. No cut-off for these calls is given here.
# Molecular target: T1, Fructose-1,6-bisphosphatase 1 (Sus scrofa) (UniProt P00636)
# T1 sequence (whole entry): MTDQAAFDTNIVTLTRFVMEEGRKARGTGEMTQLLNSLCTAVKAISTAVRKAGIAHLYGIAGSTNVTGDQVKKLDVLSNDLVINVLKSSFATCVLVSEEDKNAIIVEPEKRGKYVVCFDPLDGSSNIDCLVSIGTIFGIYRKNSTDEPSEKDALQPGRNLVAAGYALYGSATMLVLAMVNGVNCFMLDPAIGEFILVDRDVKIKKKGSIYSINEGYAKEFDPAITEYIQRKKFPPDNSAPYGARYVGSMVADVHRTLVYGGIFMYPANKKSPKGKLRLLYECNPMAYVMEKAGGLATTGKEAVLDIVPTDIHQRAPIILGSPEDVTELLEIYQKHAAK
# Assay: Inhibition of pig FBPase expressed in Escherichia coli EK1601 at 100 uM by spectrophotometry
# Conditions: not given
row,inhibition,Compound
1,87%,O=[N+]([O-])c1ccc(-c2csc(Nc3ccc(O)cc3)n2)cc1

# Molecular target: T2, Fructose-1,6-bisphosphatase 1 (Sus scrofa, UniProt P00636)
# T2 sequence (P00636 whole entry): T1 sequence (whole entry)
# Assay: Inhibition of pig FBPase expressed in Escherichia coli EK1601 by spectrophotometry
# Conditions: not given
row,IC50,Compound
1,Not Active,O=[N+]([O-])c1ccc(-c2csc(Nc3ccccc3)n2)cc1
2,Not Active,O=[N+]([O-])c1ccc(Nc2nc(-c3ccccc3)cs2)cc1

# Same assay, conditions: read-out: IC50
row,Compound,pIC50
1,Oc1cccc(Nc2nc(-c3ccc(O)cc3O)cs2)c1,5.22
2,O=C(O)c1cccc(Nc2nc(-c3ccc(O)cc3)cs2)c1,4.32
3,NS(=O)(=O)c1cccc(Nc2nc(-c3ccccc3)cs2)c1,3.98
4,Cc1cc(C)n(CC(O)COc2ccc3ccccc3c2)n1 (stereo not drawn),2.52
5,Oc1cccc(Nc2nc(-c3ccccc3)cs2)c1,4.46
6,Oc1ccc(-c2csc(Nc3ccccc3)n2)c(O)c1,3.46
7,Oc1ccc(Nc2nc(-c3ccccc3)cs2)cc1,3.91
8,O=C(O)c1cccc(Nc2nc(-c3ccccc3)cs2)c1,3.24
9,Oc1ccc(Nc2nc(-c3ccc(O)cc3)cs2)cc1,4.32
10,CCc1c(C)sc(NC(=S)NCc2ccccn2)c1C(=O)OC,4.70
11,NS(=O)(=O)c1ccc(Nc2nc(-c3ccc(O)cc3O)cs2)cc1,4.26
12,Nc1nc(-c2ccccc2)cs1,2.86
13,NS(=O)(=O)c1cccc(Nc2nc(-c3ccc(O)cc3)cs2)c1,4.30
14,Oc1ccc(-c2csc(Nc3ccccc3O)n2)cc1,4.82
15,O=[N+]([O-])c1cccc(Nc2nc(-c3ccc(O)cc3)cs2)c1,4.32
16,NS(=O)(=O)c1ccc(Nc2nc(-c3ccc(O)cc3)cs2)cc1,4.49 and 4.50
17,Oc1ccc(Nc2nc(-c3ccc(O)cc3O)cs2)cc1,4.96
18,Oc1ccc(-c2csc(Nc3cccc(O)c3)n2)cc1,4.89
19,Oc1ccccc1Nc1nc(-c2ccccc2)cs1,3.57
20,O=C(O)c1ccc(S(=O)(=O)c2ccc(C(=O)O)cc2)cc1,3.12
21,c1ccc(Nc2nc(-c3ccccc3)cs2)cc1,2.60
22,Nc1nc(-c2ccc(O)cc2)cs1,5.96
23,O=[N+]([O-])c1ccc(Nc2nc(-c3ccc(O)cc3)cs2)cc1,3.61
24,Oc1ccc(-c2csc(Nc3ccccc3)n2)cc1,3.50
25,Nc1ncnc2c1ncn2[C@@H]1O[C@H](COP(=O)(O)O)[C@@H](O)[C@H]1O [ADENOSINE PHOSPHATE],5.89
26,Oc1ccc(-c2csc(Nc3ccccc3O)n2)c(O)c1,4.70
27,NS(=O)(=O)c1ccc(Nc2nc(-c3ccccc3)cs2)cc1,3.84
28,Nc1nc(-c2ccc(O)cc2O)cs1,4.03
29,Oc1ccccc1-c1csc(Nc2ccccc2)n1,3.92

# Molecular target: T1, Fructose-1,6-bisphosphatase 1 (Sus scrofa)
# Assay: Inhibition of pig FBPase expressed in Escherichia coli EK1601 up to 300 uM by spectrophotometry
# Conditions: not given
row,inhibition,Compound
1,inactive,O=[N+]([O-])c1cccc(Nc2nc(-c3ccccc3)cs2)c1
